{"source": "patent US20050245498A1", "about": "“Sterically-awkward beta-lactamase inhibitors” (priority 2002, published 2005)", "key": {"AmpC β-lactamase [1]": {"biological_target": "T1, AmpC β-lactamase (Escherichia coli, UniProt P00811)", "T1 sequence (P00811 20-377)": "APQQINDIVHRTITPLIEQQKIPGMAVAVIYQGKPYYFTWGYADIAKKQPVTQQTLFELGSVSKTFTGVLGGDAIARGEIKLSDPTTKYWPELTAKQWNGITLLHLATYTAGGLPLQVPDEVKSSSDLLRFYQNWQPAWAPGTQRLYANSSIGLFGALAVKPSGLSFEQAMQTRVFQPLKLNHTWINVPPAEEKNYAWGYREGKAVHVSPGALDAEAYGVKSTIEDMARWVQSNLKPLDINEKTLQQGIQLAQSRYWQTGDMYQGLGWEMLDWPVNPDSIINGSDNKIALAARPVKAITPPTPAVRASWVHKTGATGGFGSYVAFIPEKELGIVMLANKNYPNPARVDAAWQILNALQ", "settings": "hydrolysis by AmpC, 1.75 nM enzyme, 50 mM Tris pH 7", "procedure": "Escherichia coli. AmpC β-lactamase was expressed and purified to homogeneity as previously described. The AmpC-catalyzed hydrolysis of the various β-lactams was monitored in an HP8453 UV/visible spectrophotometer. […] The reaction buffer used during the assays was 50 mM tris hydroxymethyl aminomethane hydrochloride (Fisher, Fair Lawn N.J.) at pH 7 in doubly-deionized water. kcat and KM values were determined at an enzyme concentration of 1.75 nM, with enzyme concentration determined, from more concentrated stocks, based on an ε280 of 0.098 μM^−1 cm^−1. […] Except for compounds synthesized for this study (ATMO-penicillin, ATMO-loracarbef), all compounds were used as supplied from the manufacturers without further purification.\nEnzymology. The AmpC-catalyzed hydrolysis of the β-lactams cefotaxime, ATMO-penicillin, and ATMO-loracarbef (FIG. 1B) were monitored by UV-vis spectroscopy (Table 1)."}, "AmpC β-lactamase [2]": {"biological_target": "T1, AmpC β-lactamase", "experiment": "biochemical", "set-up": "made in house", "settings": "for IC50 compared to cefotaxime (fold lower): relative to cefotaxime IC50"}, "[3]": {"test_system": "E. coli expressing AmpC β-lactamase", "experiment": "microbe, parasite or virus in culture", "assay_type": "cell-based", "settings": "for Minimum inhibitory concentration (MIC): E. coli expressing AmpC β-lactamase, Luria Broth, about 5×10^5 CFU/mL", "procedure": "(§1) Microbiology. Serial dilution assays in ligand culture were performed to examine the efficacy of these awkward β-lactams against clinically relevant pathogens grown in liquid culture (Table 3). The compounds were dissolved in KPi or tris hydroxymethyl aminomethane hydrochloride to a concentration of 20-50 mM, and serial dilutions were performed into Luria Broth (Difco, Detroit Mich.). Each broth solution was then inoculated with bacterial cells from an overnight culture that had been diluted to give an inoculum concentration of approximately 5×10^5 CFU/mL."}, "[4]": {"test_system": "E. coli not expressing AmpC β-lactamase", "experiment": "microbe, parasite or virus in culture", "assay_type": "cell-based", "settings": "for Minimum inhibitory concentration (MIC): E. coli not expressing AmpC β-lactamase, Luria Broth, about 5×10^5 CFU/mL", "procedure": "as §1"}, "[5]": {"test_system": "CC(=O)OCC1=C(C(=O)O)N2C(=O)[C@@H](NC(=O)Cc3cccs3)[C@H]2SC1", "experiment": "purified protein, by the assay type", "settings": "other: hydrolysis by AmpC, 1.75 nM enzyme, 50 mM Tris pH 7"}, "[6]": {"test_system": "CO/N=C(\\C(=O)N[C@@H]1C(=O)N2C(C(=O)O)=C(COC(C)=O)CS[C@H]12)c1csc(N)n1", "experiment": "purified protein, by the assay type", "settings": "other: hydrolysis by AmpC, 1.75 nM enzyme, 50 mM Tris pH 7"}, "[7]": {"test_system": "CO/N=C(\\C(=O)N[C@@H]1C(=O)N2[C@@H]1SC(C)(C)[C@@H]2C(=O)O)c1csc(N)n1", "experiment": "purified protein, by the assay type", "settings": "other: hydrolysis by AmpC, 1.75 nM enzyme, 50 mM Tris pH 7"}, "[8]": {"settings": "Escherichia coli, read-out: Minimum inhibitory concentration (MIC)"}}, "note": "Like-named read-outs stand apart in the source and are kept apart here."}
{"molecule": "CON=C(C(=O)NC1C(=O)N2C(C(=O)O)=C(Cl)CCC12)c1csc(N)n1", "note": "(centres unmarked) [ATMO-loracarbef, 7-ATMO-3-chloro-carbacephem]", "values": [{"measurement": "Kcat", "setting": "AmpC β-lactamase [1]", "result": 0.0323, "unit": "s⁻¹"}, {"measurement": "IC50", "setting": "AmpC β-lactamase [2]; against 200 μM nitrocefin, read-out: IC50", "result": 80, "unit": "nM"}, {"measurement": "IC50 compared to cefotaxime (fold lower)", "setting": "AmpC β-lactamase [2]", "result": 11, "unit": "fold"}, {"measurement": "Minimum inhibitory concentration (MIC)", "setting": "[3]", "result": 1, "unit": "µg/mL"}, {"measurement": "Minimum inhibitory concentration (MIC)", "setting": "[4]", "result": "¼"}]}
{"molecule": "CO/N=C(\\C(=O)N[C@@H]1C(=O)N2[C@@H]1SC(C)(C)[C@@H]2C(=O)O)c1csc(N)n1", "note": "[ATMO-penicillin]", "values": [{"measurement": "Kcat", "setting": "AmpC β-lactamase [1]", "result": "< 0.0045", "unit": "s⁻¹"}, {"measurement": "IC50", "setting": "AmpC β-lactamase [2]", "result": 900, "unit": "nM"}, {"measurement": "IC50 compared to cefotaxime (fold lower)", "setting": "AmpC β-lactamase [2]", "result": "comparable to cefotaxime"}]}
{"molecule": "CO/N=C(\\C(=O)N[C@@H]1C(=O)N2C(C(=O)O)=C(COC(C)=O)CS[C@H]12)c1csc(N)n1", "note": "[Cefotaxime, cefotaxime]", "values": [{"measurement": "IC50", "setting": "AmpC β-lactamase [2]", "result": 800, "unit": "nM"}, {"measurement": "Minimum inhibitory concentration (MIC)", "setting": "[3]", "result": "1/32"}, {"measurement": "Minimum inhibitory concentration (MIC)", "setting": "[4]", "result": "1/128"}]}
{"molecule": "CC(=O)OCC1=C(C(=O)O)N2C(=O)[C@@H](NC(=O)Cc3cccs3)[C@H]2SC1", "note": "[Cephalothin, cephalothin]", "values": [{"measurement": "Kcat", "setting": "AmpC β-lactamase [1]", "result": 263, "unit": "s⁻¹"}, {"measurement": "MIC", "setting": "[3]; [8]", "result": 64, "unit": "µg/mL"}, {"measurement": "MIC", "setting": "[4]; [8]", "result": 8, "unit": "µg/mL"}]}
{"molecule": "N[C@@H](C(=O)N[C@@H]1C(=O)N2C(C(=O)O)=C(Cl)CC[C@H]12)c1ccccc1", "note": "[Loracarbef, loracarbef]", "values": [{"measurement": "Kcat", "setting": "AmpC β-lactamase [1]", "result": 118.3, "unit": "s⁻¹"}, {"measurement": "Km", "setting": "AmpC β-lactamase [1]", "result": 23.7, "unit": "µM"}, {"measurement": "Kcat", "setting": "AmpC β-lactamase [1]; listed as loracarbef", "result": 118, "unit": "s⁻¹"}, {"measurement": "Minimum inhibitory concentration (MIC)", "setting": "[3]", "result": 8, "unit": "µg/mL"}, {"measurement": "Minimum inhibitory concentration (MIC)", "setting": "[4]", "result": 4, "unit": "µg/mL"}]}
{"molecule": "CC1(C)S[C@@H]2[C@H](NC(=O)Cc3ccccc3)C(=O)N2[C@H]1C(=O)O", "note": "[Penicillin G, penicillin G]", "values": [{"measurement": "Kcat", "setting": "AmpC β-lactamase [1]", "result": 133.1, "unit": "s⁻¹"}, {"measurement": "Km", "setting": "AmpC β-lactamase [1]", "result": 5.05, "unit": "µM"}, {"measurement": "Kcat", "setting": "AmpC β-lactamase [1]; listed as penicillin G", "result": 133, "unit": "s⁻¹"}]}
{"molecule": "AmpC β-lactamase (Escherichia coli K-12)", "values": [{"measurement": "Km", "setting": "[5]", "result": 31.3, "unit": "µM"}, {"measurement": "kcat", "setting": "[5]", "result": 262, "unit": "s⁻¹"}, {"measurement": "kcat", "setting": "[6]", "result": 0.0448, "unit": "s⁻¹"}, {"measurement": "kcat", "setting": "[7]", "result": "< 0.0045", "unit": "s⁻¹"}]}
